According to patent publication US6368814B1, “Tricyclic antidepressant derivatives and immunoassay” (Roche Diagnostics Corporation, priority 2000, dated 2002):

Legend:
[1] = system: Monoclonal Antibody TCA 1.1; test: Competitive microplate ELISA of imipramine with monoclonal antibody TCA 1.1, wells coated with compound 11 conjugate; type: binding, mouse; settings: compound 11 coated wells, mAb TCA 1.1
Experimental: (§1) To analyze the sera for antibody content an ELISA assay using the cognate antigen linked to a different protein (2-carboxypropyl-dihydroamitriptyline-BSA) (compound 11) was used. This antigen was diluted to 5 μg/ml in 0.1 M carbonate buffer, pH 9.5. A volume of 100 μl of this antigen solution was pipetted into wells of a polystyrene 96-well microplate (Costar, Cambridge, Mass.). This was incubated in a plastic bag at 37° C. for 1 hour. The solutions were then removed via suction, and wells were filled with a blocking solution. This consisted of gelatine hydrolysate, 1%, sucrose, 2%, Tris, 0.15 M, pH 7.4 (all reagents from Sigma Chemicals). This was allowed to block the plates for 1 hour at room temperature in plastic bags. Wells were then emptied via suction.
(§2) Dilutions of the sera were prepared by transferring 1 μl to a glass test tube containing 1 ml of phosphate buffered saline, with 0.1% Tween 20 (PBS-T). One hundred and fifty microliters of this dilution of each serum were transferred to wells in Row A of a polyvinyl chloride microplate. All other wells were filled with 100 μl of PBS-T. Serial three-fold dilutions were prepared by transferring 50 μl from Row A to Row B using a multi-channel micropipettor. Mixing was accomplished by re-pipetting 3 times. This was repeated from Row B to C and so on down each column of wells.
(§3) Once all dilutions were prepared, 95 μl of each, starting with Row H, was transferred to the same row in the coated plate. The plate was placed in a Ziploc plastic bag with a damp piece of paper towel and incubated at 37° C. for one hour. Following incubation, the wells were washed four times manually with 300 μl aliquots of PBS-T. A 1:5000 dilution of goat anti-mouse IgG AM-HRP conjugate (Kirkegaard & Perry, Gaithersburg, Md.) was prepared in PBS-T. 100 μl of this was then pipetted into each well, the plate again incubated as above. The plate was then washed 6 times with 300 μl of PBS-T manually, and 100 μl of K-Blue substrate (Neogen, Lexington, Ky.) was added to each well. This was allowed to develop in the dark for 5 minutes, and the reaction was then stopped by the addition of 100 μl of a 2 M phosphoric acid solution. The optical densities of the wells were read using a Molecular Devices Tmax plate reader and a Macintosh computer.
(§4) Hybridoma clone TCA 1.1 was placed into high-density culture and supernatant harvested. This preparation was preserved by the addition of thimerosal to a concentration of 0.02%. Antibody content was evaluated by a titer experiment in which varying dilutions of supernatant were placed into microplate wells coated with a constant amount of antigen conjugate.
(§5) Incubation for 1 hour at 37° C. was followed by the same procedure as for the screening assays. Optical densities were plotted versus the final concentration of imipramine calculated as a molar (gram-molecular weight drug per liter) concentration.

[2] = system: Monoclonal Antibody TCA 1.1; test: Competitive microplate ELISA of imipramine with monoclonal antibody TCA 1.1, wells coated with compound 27 conjugate; type: binding, mouse; settings: compound 27 coated wells, mAb TCA 1.1
Experimental: as §1, §2, §3
This animal received a booster immunization of 100 μg of antigen in incomplete Freund's adjuvant four days before the fusion was performed. The myeloma cell line F0 (ATCC, Manassas, Va.) was used for the fusion. The fusion was performed by the method of de St Groth and Scheidegger, Journal of Immunol. Meth. 35, 1-21, 1980. Ten days later hybrid cell cultures were ready for screening.
as §4, §5

[3] = imipramine final concentration 1.98 × 10^−6 molar
[4] = imipramine final concentration 2.2 × 10^−7 molar
[5] = imipramine final concentration 2.45 × 10^−8 molar
[6] = imipramine final concentration 6.6 × 10^−7 molar
[7] = imipramine final concentration 7.43 × 10^−8 molar
[8] = imipramine final concentration 8.15 × 10^−9 molar

**Q.** What does the source list for `CN(C)CCCN1c2ccccc2CCc2ccccc21` [Imipramine, imipramine]?
**A.** OD450 compound 11 [1, 3]: 0.056; OD450 compound 11 [1, 4]: 1.35; OD450 compound 11 [1, 5]: 2.325; OD450 compound 11 [1, 6]: 0.541; OD450 compound 11 [1, 7]: 1.95; OD450 compound 11 [1, 8]: 2.6; OD450 compound 27 [2, 3]: 0.037; OD450 compound 27 [2, 4]: 0.276; OD450 compound 27 [2, 5]: 1.719; OD450 compound 27 [2, 6]: 0.038; OD450 compound 27 [2, 7]: 1.124; OD450 compound 27 [2, 8]: 2.434
